Data: patent US20160008243A1, “METHOD OF TREATING HAIR” (priority 2013, published 2016)

Test: Hair switch straightening test (switch volume after treatment, rinsing, combing and drying)
Experimental: Dark brown European wavy#6 switches of length 25 cm and weight 2 gms, were dosed with 2 ml each of different levels of trans aconitic acid solutions. They were combed straight and left to develop for at least 20 minutes. They were subsequently rinsed for 30 seconds under the tap. They were then combed straight and left to dry overnight. When dry the switches were combed straight and pictures taken. All switches looked straight without the waviness of the pre-treated switches. […] (Here volume refers to the projection of the switch image on to the screen and is given in mm^2).

[1] = 5% solution at pH 2, 2 ml per 2 g switch, at least 20 min, rinsed, dried overnight

SMILES	% benefit over water (0.5% solution at pH 2)	Volume in mm^2 (projection of the switch image on to the screen) (0.5% solution at pH 2)	% benefit over water (1% solution at pH 2)	Volume in mm^2 (projection of the switch image on to the screen) (1% solution at pH 2)	% benefit over water (2.5% solution at pH 2)	Volume in mm^2 (projection of the switch image on to the screen) (2.5% solution at pH 2)	% benefit over water (5% solution at pH 2)	Volume in mm^2 (projection of the switch image on to the screen) [1]	% benefit over water (5% solution at pH 3)	Volume in mm^2 (projection of the switch image on to the screen) (5% solution at pH 3)	Hair straightening benefit (in words) (applied to hair, conclusion from the table)
O=C(O)/C=C(\CC(=O)O)C(=O)O [trans Aconitic acid, trans aconitic acid]	15.4%	12073 mm^2	20.4%	11363 mm^2	24.6%	10763 mm^2	40.8%	8456 mm^2	17.3%	11812 mm^2	gives hair straightening benefits
O=C(O)CC(O)(CC(=O)O)C(=O)O [Citric acid, reference compound]							33.6%	9481 mm^2			
